Measured values taken from patent US11124488B2, “Preparation of 2-([1,2,3]triazol-2-yl)-benzoic acid derivatives” (IDORSIA PHARMACEUTICALS LTD, priority 2017, dated 2021).

Row | Structure (SMILES) | melting point
1 | COc1ccc(-n2nccn2)c(C(=O)N2CCC[C@@]2(C)C(=O)O)c1 [Reference Example 4.2, (S)-1-(5-methoxy-2-(2H-1,2,3-triazol-2-yl)benzoyl)-2-methylpyrrolidine-2-carboxylic acid] | 178 °C
2 | COc1ccc(-n2nccn2)c(C(=O)N2CCC[C@@]2(C)C(=O)Nc2ccc(Cl)c(C)c2N)c1 [Reference Example 4.3, (S)—N-(2-amino-4-chloro-3-methylphenyl)-1-(5-methoxy-2-(2H-1,2,3-triazol-2-yl)benzoyl)-2 methylpyrrolidine-2-carboxamide] | 185 °C
